Assay results published in PubChem BioAssay (NCI).
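Compound exposure: 48 hours, 5 concentrations, 96-well plates. TGI: concentration producing complete growth inhibition.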

Legend:
Test in all cases: NCI-60 cell line screen, 48 h
LXFL 529 NSCLC = test system: LXFL 529 NSCLC
NCI-H460 lung = test system: NCI-H460 lung
MALME-3M melanoma = test system: MALME-3M melanoma
SF-539 CNS = test system: SF-539 CNS
SNB-78 CNS = test system: SNB-78 CNS
DMS 114 small cell lung = test system: DMS 114 small cell lung
CCRF-CEM leukemia = test system: CCRF-CEM leukemia
COLO 205 colon = test system: COLO 205 colon
M14 melanoma = test system: M14 melanoma
DLD-1 colon = test system: DLD-1 colon
NCI-H522 lung = test system: NCI-H522 lung
IGROV1 ovarian = test system: IGROV1 ovarian
RPMI-8226 leukemia = test system: RPMI-8226 leukemia
RXF 393 renal = test system: RXF 393 renal
SW-620 colon = test system: SW-620 colon
A549 NSCLC = test system: A549 NSCLC
EKVX NSCLC = test system: EKVX NSCLC
ACHN renal = test system: ACHN renal
HCT-116 colon = test system: HCT-116 colon
LOX IMVI melanoma = test system: LOX IMVI melanoma
SF-268 CNS = test system: SF-268 CNS
786-0 renal = test system: 786-0 renal
MOLT-4 leukemia = test system: MOLT-4 leukemia
KM20L2 colon = test system: KM20L2 colon
SNB-75 CNS = test system: SNB-75 CNS
HOP-92 NSCLC = test system: HOP-92 NSCLC
K-562 leukemia = test system: K-562 leukemia
HT29 colon = test system: HT29 colon
UACC-257 melanoma = test system: UACC-257 melanoma
HOP-62 NSCLC = test system: HOP-62 NSCLC
M19-MEL melanoma = test system: M19-MEL melanoma
U251 CNS = test system: U251 CNS
A498 renal = test system: A498 renal
UO-31 renal = test system: UO-31 renal
SK-OV-3 ovarian = test system: SK-OV-3 ovarian
HCC-2998 colon = test system: HCC-2998 colon
NCI-H23 lung = test system: NCI-H23 lung
OVCAR-3 ovarian = test system: OVCAR-3 ovarian
SN12C renal = test system: SN12C renal
CAKI-1 renal = test system: CAKI-1 renal
HCT-15 colon = test system: HCT-15 colon
SNB-19 CNS = test system: SNB-19 CNS
SK-MEL-5 melanoma = test system: SK-MEL-5 melanoma
SF-295 CNS = test system: SF-295 CNS
OVCAR-5 ovarian = test system: OVCAR-5 ovarian
OVCAR-4 ovarian = test system: OVCAR-4 ovarian
SR leukemia = test system: SR leukemia
KM12 colon = test system: KM12 colon
HOP-18 NSCLC = test system: HOP-18 NSCLC
NCI-H226 lung = test system: NCI-H226 lung
DMS 273 small cell lung = test system: DMS 273 small cell lung
RXF-631 renal = test system: RXF-631 renal
TK-10 renal = test system: TK-10 renal
HL-60(TB) leukemia = test system: HL-60(TB) leukemia
OVCAR-8 ovarian = test system: OVCAR-8 ovarian
UACC-62 melanoma = test system: UACC-62 melanoma
SK-MEL-2 melanoma = test system: SK-MEL-2 melanoma
XF 498 CNS = test system: XF 498 CNS

Structure (SMILES): Cc1oc2c(C)c3oc(=O)cc(C)c3cc2c1CN1C(=O)C2OCCOCCOCCOCCOCCO[C@H]2C1=O (stereo partly specified)
- TGI (LXFL 529 NSCLC): > 100 µM
- TGI (NCI-H460 lung): > 100 µM
- TGI (MALME-3M melanoma): > 100 µM
- TGI (SF-539 CNS): > 100 µM
- TGI (SNB-78 CNS): > 100 µM
- TGI (DMS 114 small cell lung): > 100 µM
- TGI (CCRF-CEM leukemia): > 100 µM
- TGI (COLO 205 colon): > 100 µM
- TGI (M14 melanoma): > 100 µM
- TGI (DLD-1 colon): > 100 µM
- TGI (NCI-H522 lung): > 100 µM
- TGI (IGROV1 ovarian): > 100 µM
- TGI (RPMI-8226 leukemia): > 100 µM
- TGI (RXF 393 renal): > 100 µM
- TGI (SW-620 colon): > 100 µM
- TGI (A549 NSCLC): > 100 µM
- TGI (EKVX NSCLC): > 100 µM
- TGI (ACHN renal): > 100 µM
- TGI (HCT-116 colon): > 100 µM
- TGI (LOX IMVI melanoma): > 100 µM
- TGI (SF-268 CNS): > 100 µM
- TGI (786-0 renal): > 100 µM
- TGI (MOLT-4 leukemia): > 100 µM
- TGI (KM20L2 colon): > 100 µM
- TGI (SNB-75 CNS): > 100 µM
- TGI (HOP-92 NSCLC): > 100 µM
- TGI (K-562 leukemia): > 100 µM
- TGI (HT29 colon): > 100 µM
- TGI (UACC-257 melanoma): > 100 µM
- TGI (HOP-62 NSCLC): > 100 µM
- TGI (M19-MEL melanoma): > 100 µM
- TGI (U251 CNS): > 100 µM
- TGI (A498 renal): > 100 µM
- TGI (UO-31 renal): > 100 µM
- TGI (SK-OV-3 ovarian): > 100 µM
- TGI (HCC-2998 colon): > 100 µM
- TGI (NCI-H23 lung): > 100 µM
- TGI (OVCAR-3 ovarian): > 100 µM
- TGI (SN12C renal): > 100 µM
- TGI (CAKI-1 renal): > 100 µM
- TGI (HCT-15 colon): > 100 µM
- TGI (SNB-19 CNS): > 100 µM
- TGI (SK-MEL-5 melanoma): > 100 µM
- TGI (SF-295 CNS): > 100 µM
- TGI (OVCAR-5 ovarian): > 100 µM
- TGI (OVCAR-4 ovarian): > 100 µM
- TGI (SR leukemia): > 100 µM
- TGI (KM12 colon): > 100 µM
- TGI (HOP-18 NSCLC): > 100 µM
- TGI (NCI-H226 lung): > 100 µM
- TGI (DMS 273 small cell lung): > 100 µM
- TGI (RXF-631 renal): 74.2 µM
- TGI (TK-10 renal): > 100 µM
- TGI (HL-60(TB) leukemia): > 100 µM
- TGI (OVCAR-8 ovarian): > 100 µM
- TGI (UACC-62 melanoma): > 100 µM

Structure (SMILES): C1=CC=C2NCCCCCCCNC3=CC=CC=CC3=NCCCCCCCN=C2C=C1
- TGI (LXFL 529 NSCLC): > 100 µM
- TGI (NCI-H460 lung): > 100 µM
- TGI (MALME-3M melanoma): > 100 µM
- TGI (SF-539 CNS): > 100 µM
- TGI (CCRF-CEM leukemia): > 100 µM
- TGI (COLO 205 colon): > 100 µM
- TGI (DLD-1 colon): > 100 µM
- TGI (NCI-H522 lung): > 100 µM
- TGI (RPMI-8226 leukemia): > 100 µM
- TGI (RXF 393 renal): 39.5 µM
- TGI (SW-620 colon): > 100 µM
- TGI (A549 NSCLC): > 100 µM
- TGI (EKVX NSCLC): > 100 µM
- TGI (ACHN renal): > 100 µM
- TGI (HCT-116 colon): > 100 µM
- TGI (LOX IMVI melanoma): > 100 µM
- TGI (SF-268 CNS): > 100 µM
- TGI (786-0 renal): > 100 µM
- TGI (MOLT-4 leukemia): > 100 µM
- TGI (KM20L2 colon): > 100 µM
- TGI (SNB-75 CNS): 67.9 µM
- TGI (SK-MEL-2 melanoma): > 100 µM
- TGI (HOP-92 NSCLC): 98.6 µM
- TGI (K-562 leukemia): > 100 µM
- TGI (HT29 colon): > 100 µM
- TGI (UACC-257 melanoma): > 100 µM
- TGI (M19-MEL melanoma): > 100 µM
- TGI (UO-31 renal): > 100 µM
- TGI (HCC-2998 colon): > 100 µM
- TGI (NCI-H23 lung): > 100 µM
- TGI (SN12C renal): > 100 µM
- TGI (CAKI-1 renal): > 100 µM
- TGI (HCT-15 colon): > 100 µM
- TGI (SNB-19 CNS): > 100 µM
- TGI (XF 498 CNS): > 100 µM
- TGI (SF-295 CNS): > 100 µM
- TGI (OVCAR-5 ovarian): > 100 µM
- TGI (OVCAR-4 ovarian): > 100 µM
- TGI (SR leukemia): > 100 µM
- TGI (KM12 colon): > 100 µM
- TGI (NCI-H226 lung): > 100 µM
- TGI (DMS 273 small cell lung): 39.9 µM
- TGI (RXF-631 renal): 25.7 µM
- TGI (HL-60(TB) leukemia): > 100 µM
- TGI (OVCAR-8 ovarian): > 100 µM
